The subject of one data set is intracellular HBV DNA. Briefly: Real-time PCR for intracellular HBV DNA in HepAD38 cells. Format: cell-based. To be noted: 65 hours treatment. In general terms: In qPCR the cycle at which signal appears reflects the starting amount.
The subject of a further data set is HepAD38 cells. Briefly: Cell viability assay (EZ-Cytox), cytotoxicity. Format: cell-based. To be noted: 65 hours. The protocol: (§1) HepAD38 cells were cultured for 2 days in Dulbecco's Modified Eagle's medium (Welgene, LM001-05) supplemented with 10% FBS without tetracycline. […] After 65 hours of treatment, viability was measured using EZ-Cytox cell viability assay kit (Daeil Lab Service) according to the manufacturer's instructions. The absorbance was measured at 450 nm using a spectrophotometer (Spark, Tecan).

Data set [1] in a line: Cell viability assay (EZ-Cytox), cytotoxicity. It is filed as cell-based. To be noted: human, HepAD38 cells; for viability at 65 h, 100 µM: read-out: Cytotoxicity % Livability (@100 μM). On the procedure:
as §1

The next data set has as its target Protein (Hepatitis B virus genotype D subtype ayw, UniProt P03146). Briefly: Protein inhibition rate / EC50 (Table 1, no method described). It is filed as biochemical.
Where [2] appears, read: Hepatitis B virus, HePAD38, 65 h.

Where two headings read alike, the source gives them in different places.

From patent US20250009742A1 (priority 2021, published 2025) come the findings set out here.

Chain of Protein (P03146 whole entry): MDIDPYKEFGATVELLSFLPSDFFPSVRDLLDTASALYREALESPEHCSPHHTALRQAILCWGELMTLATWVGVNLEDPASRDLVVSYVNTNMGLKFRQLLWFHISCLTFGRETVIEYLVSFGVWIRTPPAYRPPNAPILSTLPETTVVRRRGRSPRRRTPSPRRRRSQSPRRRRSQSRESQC

Regarding “3-(3-chloro-4-fluorophenyl)-1-((1-(hydroxymethyl)-5-(trifluoromethyl)-1H-pyrazol-3-yl)methyl)-1-(6-methoxypyridin-3-yl)urea [Example 79]”, in the data set with intracellular HBV DNA (read-out: IC50), the IC50 (in general, the concentration that inhibits the measured activity by half) was 0.019 µM. In addition, in the data set with HepAD38 cells, the “Cytotoxicity % Livability (@100 μM)” value is listed as 18.5%.

In turn, `COc1ncc(N(Cc2n[nH]c(C(F)F)c2Br)C(=O)Nc2ccc(F)c(Cl)c2)cn1` [Example 81, 1-((4-bromo-5-(difluoromethyl)-1H-pyrazol-3-yl)methyl)-3-(3-chloro-4-fluorophenyl)-1-(2-methoxypyrimidin-5-yl)urea] showed a 50% inhibitory concentration (IC50) in the data set on intracellular HBV DNA of 0.0145 µM. In addition, in the data set on HepAD38 cells, the CC50 (in general, the concentration giving 50% cytotoxicity) was > 100 µM and the “Cytotoxicity % Livability (@100 μM)” value is recorded as 76.0%.

For the molecule `COc1ncc(N(Cc2n[nH]c(C(F)F)c2Br)C(=O)Nc2ccc(F)c(Cl)c2)cn1` [Example 98, 1-((4-bromo-5-(difluoromethyl)-1H-pyrazol-3-yl)methyl)-3-(3-chloro-4-fluorophenyl)-1-(2-methoxypyrimidin-5-yl)urea], in the data set with intracellular HBV DNA (setting [2]), the half-maximal inhibitory concentration (IC50) came to 0.018 µM. Further, the “Cytotoxicity % Livability (@100 μM)” value in the data set with HepAD38 cells was found to be 30.1%. Moreover, the CC50 at 65 h in data set [1] was > 66 µM.

In the case of `COc1ccc(N(Cc2cc(C(C)C)[nH]n2)C(=O)Nc2ccc(F)c(Cl)c2)cn1` [Example 58, 3-(3-chloro-4-fluorophenyl)-1-((5-isopropyl-1H-pyrazol-3-yl)methyl)-1-(6-methoxypyridin-3-yl)urea], in the data set with intracellular HBV DNA (setting [2]), the IC50 was found to be 0.16 µM. Further, in data set [1], the CC50 at 65 h is > 100 µM and the viability at 65 h, 100 µM was 92.7%. Also, at Protein, it took 5 µM to reach a half-maximal effect (EC50) and 30 µM produced 93.1% inhibition.

As to `COc1ccc(N(Cc2n[nH]c3c2CN(C(C)=O)CC3)C(=O)Nc2ccc(F)c(Cl)c2)cc1` [Example 33, 1-((5-acetyl-4,5,6,7-tetrahydro-1H-pyrazolo[4,3-c]pyridin-3-yl)methyl)-3-(3-chloro-4-fluorophenyl)-1-(4-methoxyphenyl)urea], the IC50 in the data set with intracellular HBV DNA (setting [2]) was > 1.1 µM. Besides, the viability at 65 h, 100 µM in data set [1] worked out at 96%. Also, 30 µM produced 77.8% inhibition at Protein.

As to `O=C(Nc1ccc(F)c(Cl)c1)N(Cc1n[nH]c2c1CCC2)c1ccon1` [Example 134, 3-(3-chloro-4-fluorophenyl)-1-(isoxazol-3-yl)-1-((1,4,5,6-tetrahydrocyclopenta[c]pyrazol-3-yl)methyl)urea], in the data set on intracellular HBV DNA (setting [2]), the IC50 is 0.069 µM. Further, in data set [1], the midpoint of cytotoxicity, the CC50 at 65 h, lay at 70.3 µM and the viability at 65 h, 100 µM is 6.5%. Moreover, at Protein, the EC50 (in general, the midpoint of the concentration-response curve) amounted to 3.5 µM and testing at 30 µM gave an inhibition of 84.5%.

Consider `COc1ccc(N(Cc2ccn(C)n2)C(=O)Nc2ccc(F)c(Cl)c2)cc1` [Example 35, 3-(3-chloro-4-fluorophenyl)-1-(4-methoxyphenyl)-1-((1-methyl-1H-pyrazol-3-yl)methyl)urea], for which the IC50 with intracellular HBV DNA (setting [2]) was > 1.1 µM. Also, in data set [1], the viability at 65 h, 100 µM was found to be 90.5%. Further, the inhibition (commonly the relative decrease from the control value, in per cent) at 30 µM at Protein came to 33.7%.

The molecule `COc1ccc(N(Cc2n[nH]c3c2CCC3C)C(=O)Nc2ccc(F)c(Cl)c2)cn1` (centres unmarked) [Example 59, 3-(3-chloro-4-fluorophenyl)-1-(6-methoxypyridin-3-yl)-1-((6-methyl-1,4,5,6-tetrahydrocyclopenta[c]pyrazol-3-yl)methyl)urea] displayed an IC50 in the data set with intracellular HBV DNA (setting [2]) of 0.013 µM. Moreover, in data set [1], the 50% cytotoxic concentration (CC50) at 65 h is > 100 µM and the viability at 65 h, 100 µM came out at 91.2%. At Protein, this molecule had an EC50 of 4 µM and an inhibition at 30 µM of 94.9%.

In the case of `COc1ccc(N(Cc2n[nH]c3c2CC(O)CC3)C(=O)Nc2ccc(F)c(Cl)c2)cn1` (centres unmarked) [Example 48, 3-(3-chloro-4-fluorophenyl)-1-((5-hydroxy-4,5,6,7-tetrahydro-1H-indazol-3-yl)methyl)-1-(6-methoxypyridin-3-yl)urea], half-maximal inhibition in the data set on intracellular HBV DNA (setting [2]) (IC50) required 1.1 µM. Also, the CC50 at 65 h in data set [1] is > 100 µM. Further, at Protein, the EC50 was 6.4 µM and at 30 µM the inhibition was 90%.

Take `O=C(Nc1ccc(F)c(Cl)c1)N(Cc1n[nH]c2c1CCCC2)c1ccc(=O)[nH]c1` [Example 14, 3-(3-chloro-4-fluorophenyl)-1-(6-oxo-1,6-dihydropyridin-3-yl)-1-((4,5,6,7-tetrahydro-1H-indazol-3-yl)methyl)urea]: the IC50 in the data set on intracellular HBV DNA (setting [2]) turned out to be 0.11 µM. In data set [1], the CC50 at 65 h is > 100 µM and the viability at 65 h, 100 µM came out at 95.4%. At Protein, the concentration giving a half-maximal response (EC50) is 7.3 µM and the inhibition at 30 µM came out at 14%.

In the case of `COc1ccc(N(Cc2n[nH]c3c2COCC3)C(=O)Nc2ccc(F)c(Cl)c2)cc1` [Example 38, 3-(3-chloro-4-fluorophenyl)-1-(4-methoxyphenyl)-1-((1,4,6,7-tetrahydropyrano[4,3-c]pyrazol-3-yl)methyl)urea], the IC50 in the data set on intracellular HBV DNA (setting [2]) was 0.018 µM. Moreover, in data set [1], the 50% cytotoxic concentration (CC50) at 65 h is > 100 µM and the viability at 65 h, 100 µM is 104%. At Protein, this molecule yielded an EC50 of 1.6 µM and an inhibition at 30 µM of 80%.

`COc1ccc(N(Cc2cc(C)[nH]n2)C(=O)Nc2ccc(F)c(Cl)c2)cn1` [Example 50, 3-(3-chloro-4-fluorophenyl)-1-(6-methoxypyridin-3-yl)-1-((5-methyl-1H-pyrazol-3-yl)methyl)urea] yielded an IC50 with intracellular HBV DNA (setting [2]) of 0.26 µM. Also, the CC50 at 65 h in data set [1] is > 100 µM. Also, at Protein, a half-maximal effect (EC50) was put at 3.8 µM and 30 µM produced 94.3% inhibition.

In the case of `CCc1cc(CN(C(=O)Nc2ccc(F)c(Cl)c2)c2ccc(OC)nc2)n[nH]1` [Example 60, 3-(3-chloro-4-fluorophenyl)-1-((5-ethyl-1H-pyrazol-3-yl)methyl)-1-(6-methoxypyridin-3-yl)urea], the IC50 with intracellular HBV DNA (setting [2]) was 0.11 µM. In data set [1], the cytotoxic concentration (CC50) at 65 h is > 100 µM and the viability at 65 h, 100 µM was determined as 76%. Also, on Protein, the EC50 worked out at 3 µM and the inhibition at 30 µM was 94.7%.

For `COc1ccc(N(Cc2n[nH]c3c2CN(C)CC3)C(=O)Nc2ccc(F)c(Cl)c2)cc1` [Example 37, 3-(3-chloro-4-fluorophenyl)-1-(4-methoxyphenyl)-1-((5-methyl-4,5,6,7-tetrahydro-1H-pyrazolo[4,3-c]pyridin-3-yl)methyl)urea], in the data set on intracellular HBV DNA (setting [2]), the IC50 was > 1.1 µM. Besides, the viability at 65 h, 100 µM in data set [1] came to 22.4%. For the same molecule, the inhibition at 30 µM on Protein is 28.3%.

In the case of `COc1ccc(N(Cc2n[nH]c3ccccc23)C(=O)Nc2ccc(F)c(Cl)c2)cn1` [Example 43, 1-((1H-indazol-3-yl)methyl)-3-(3-chloro-4-fluorophenyl)-1-(6-methoxypyridin-3-yl)urea], the half-maximal inhibitory concentration (IC50) in the data set with intracellular HBV DNA (setting [2]) was 0.043 µM. Also, in data set [1], the CC50 at 65 h is > 100 µM and the viability at 65 h, 100 µM is 92%. For the same molecule, on Protein, the midpoint of the response, the EC50, lay at 6.06 µM and the inhibition at 30 µM came to 96.7%.

In the data set on intracellular HBV DNA (setting [2]), `COc1ccc(N(Cc2n[nH]c3c2CC(C(F)(F)F)CC3)C(=O)Nc2ccc(F)c(Cl)c2)cn1` (centres unmarked) [Example 62, 3-(3-chloro-4-fluorophenyl)-1-(6-methoxypyridin-3-yl)-1-((5-(trifluoromethyl)-4,5,6,7-tetrahydro-1H-indazol-3-yl)methyl)urea] gave an IC50 of 0.2 µM. In data set [1], the midpoint of cytotoxicity, the CC50 at 65 h, lay at 86.7 µM and the viability at 65 h, 100 µM worked out at 6.5%. On Protein, this molecule displayed a concentration giving a half-maximal response (EC50) of 6.9 µM and an inhibition at 30 µM of 100%.

For “1-((4-bromo-1H-pyrazol-3-yl)methyl)-3-(3-chloro-4-fluorophenyl)-1-(4-methoxyphenyl)urea [Example 61]”, the IC50 in the data set with intracellular HBV DNA (read-out: IC50) worked out at 0.502 µM. Also, in the data set with HepAD38 cells, the midpoint of cytotoxicity, the CC50, lay at 98.8 µM and the “Cytotoxicity % Livability (@100 μM)” value stood at 40.8%. On Protein, this molecule had an EC50 of 4.4 µM. Further, the “Protein % inhibition rate (@30 μM)” value at Protein (@30 μM) is 81.8%.

For `COc1ccc(N(Cc2n[nH]cc2C)C(=O)Nc2ccc(F)c(Cl)c2)cn1` [Example 56, 3-(3-chloro-4-fluorophenyl)-1-(6-methoxypyridin-3-yl)-1-((4-methyl-1H-pyrazol-3-yl)methyl)urea], half-maximal inhibition with intracellular HBV DNA (setting [2]) (IC50) was put at 0.4 µM. Further, in data set [1], the cytotoxic concentration (CC50) at 65 h is > 100 µM and the viability at 65 h, 100 µM was 98.2%. At Protein, it took 6.6 µM to reach a half-maximal effect (EC50) and at 30 µM the inhibition was 86.4%.

As to `COc1ccc(N(Cc2n[nH]c3c2CCC3)C(=O)Nc2ccc(F)c(Cl)c2)cn1` [Example 41, 3-(3-chloro-4-fluorophenyl)-1-(6-methoxypyridin-3-yl)-1-((1,4,5,6-tetrahydrocyclopenta[c]pyrazol-3-yl)methyl)urea], 0.018 µM corresponded to half-maximal inhibition in the data set on intracellular HBV DNA (setting [2]) (IC50). For the same molecule, in data set [1], the 50% cytotoxic concentration (CC50) at 65 h was > 100 µM and the viability at 65 h, 100 µM stood at 97.8%. This molecule also came in with a concentration for a half-maximal effect (EC50) at Protein of 2.6 µM. The molecule further gave an inhibition at 3 µM against Protein (@3 μM (footnote *)) of 59%.
